Measured values reported in article PMC5830590 (British Journal of Cancer, 2018).
“Also recorded” adds a separate entry of the source.

Assays:
[1] = Plasma pharmacokinetics on cycle 1, day 1; format: in vivo, human
[2] = Urinary excretion up to 25 h after start of copanlisib infusion; format: in vivo, human; conditions: 25 h urine collection interval; expansion cohort
[3] = test system: patients with advanced malignancies; experiment: Adverse events; format: in vivo, human
[4] = test system: patients with advanced malignancies; experiment: Dose escalation; format: in vivo, human
[5] = test system: advanced or refractory solid tumours; experiment: Tumour response by RECIST version 1.1; format: in vivo, human
[6] = test system: multidrug and toxin extrusion protein 2K (MATE2-K); conditions: in vitro; no reference given; cited from earlier work
PIK3CA-mutated cells = conditions: preclinical studies; ref Liu et al, 2013; cited from earlier work
[7] = test system: class I PI3K (PI3K-δ and PI3K-α isoforms); conditions: pan-class I PI3K inhibitor; ref Liu et al, 2013; Haike et al, 2014; cited from earlier work
[8] = test system: patients with chronic lymphocytic leukaemia, small lymphocytic lymphoma and indolent non-Hodgkin’s lymphomas; conditions: ref US Food and Drug Administration, 2016; cited from earlier work

Question: With `COc1c(OCCCN2CCOCC2=O)ccc2c3n(c(=NC(=O)c4cnc(N)nc4)nc12)CCN3` [M-1] as the molecule, how does the “median tmax of M-1, range across cohorts” value ([1]; copanlisib 0.8 mg kg^−1, cycle 1, day 1) read?
Answer: 2 to 4 h

Question: And the “effect of co-administration of CisGem on plasma exposure (Cmax and AUC(0–25))” value ([1]; in vivo)?
Answer: no influence

Question: And the “estimated geometric mean terminal half-life of M-1 versus copanlisib” value ([1]; in vivo)?
Answer: comparable with that of copanlisib

Question: And the “amount excreted into urine, % of dose” value [2]?
Answer: ~0.9%

Question: Which “TEAE any grade: decreased platelet count” value ([3]; all 50 patients) does the source give for `COc1c(OCCCN2CCOCC2)ccc2c1N=C(NC(=O)c1cnc(N)nc1)N1CCN=C21` [copanlisib] here?
Answer: 80%

Question: What about the “TEAE any grade: fatigue” value ([3]; all 50 patients) of the same molecule?
Answer: 76%

Question: And the “TEAE any grade: hyperglycaemia” value ([3]; all 50 patients)?
Answer: 80%

Question: What about the “TEAE any grade: nausea” value ([3]; all 50 patients) of the same molecule?
Answer: 86%

Question: What about the “copanlisib-related TEAE: anaemia” value ([3]; all 50 patients) of the same molecule?
Answer: 42%

Question: And the “copanlisib-related TEAE: anorexia” value ([3]; all 50 patients)?
Answer: 56%

Question: And the “copanlisib-related TEAE: decreased neutrophil count” value ([3]; all 50 patients)?
Answer: 62%

Question: What about the “copanlisib-related TEAE: decreased platelet count” value ([3]; all 50 patients) of the same molecule?
Answer: 58%

Question: What about the “copanlisib-related TEAE: fatigue” value ([3]; all 50 patients) of the same molecule?
Answer: 66%

Question: And the “copanlisib-related TEAE: hyperglycaemia” value ([3]; all 50 patients)?
Answer: 76%

Question: What about the “copanlisib-related TEAE: hypertension” value ([3]; all 50 patients) of the same molecule?
Answer: 46%

Question: And the “copanlisib-related TEAE: nausea” value ([3]; all 50 patients)?
Answer: 74%

Question: And the “copanlisib-related TEAE: vomiting” value ([3]; all 50 patients)?
Answer: 36%

Question: What about the “deaths considered related to study treatment” value ([3]; all 50 patients) of the same molecule?
Answer: No deaths

Question: What about the “grade ⩾3 TEAE: decreased neutrophil count” value ([3]; all 50 patients) of the same molecule?
Answer: 62%

Question: And the “grade ⩾3 TEAE: decreased platelet count” value ([3]; all 50 patients)?
Answer: 38%

Question: What about the “grade ⩾3 TEAE: fatigue” value ([3]; all 50 patients) of the same molecule?
Answer: 22%

Question: What about the “grade ⩾3 TEAE: hyperglycaemia” value ([3]; all 50 patients) of the same molecule?
Answer: 24%

Question: What about the “grade ⩾3 TEAE: hypertension” value ([3]; all 50 patients) of the same molecule?
Answer: 42%

Question: What about the “grade ⩾3 copanlisib-related AE: decreased neutrophil count” value ([3]; all 50 patients) of the same molecule?
Answer: 48%

Question: And the “grade ⩾3 copanlisib-related AE: decreased platelet count” value ([3]; all 50 patients)?
Answer: 28%

Question: What about the “grade ⩾3 copanlisib-related AE: hypertension” value ([3]; all 50 patients) of the same molecule?
Answer: 38%

Question: What about the “patients who received insulin as remedial drug therapy” value ([3]; all 50 patients) of the same molecule?
Answer: 14 patients

Question: What about the “dose modification because of copanlisib-related TEAEs” value ([3]; all 50 patients, 26 patients) of the same molecule?
Answer: 52%

Question: And the “serious AE” value ([3]; all 50 patients, 26 patients)?
Answer: 52%

Question: What about the “dose modifications (interruption or dose reduction) for copanlisib, gemcitabine or cisplatin due to TEAEs” value ([3]; all 50 patients, 45 patients) of the same molecule?
Answer: 90%

Question: What about the “at least one serious copanlisib-related AE” value ([3]; all 50 patients, eleven patients) of the same molecule?
Answer: 22%

Question: And the “serious AE: abdominal pain” value ([3]; all 50 patients, four patients)?
Answer: 8%

Question: What about the “permanently discontinued copanlisib because of TEAEs” value ([3]; all 50 patients, nine patients) of the same molecule?
Answer: 18%

Question: And the “serious copanlisib-related AE: grade 4 sinus tachycardia and grade 4 sepsis” value ([3]; all 50 patients, one patient)?
Answer: 2%

Question: And the “serious AE: lung infection” value ([3]; all 50 patients, six patients)?
Answer: 12%

Question: What about the “TEAE of grade 3 hyperglycaemia” value ([3]; all 50 patients, ten patients) of the same molecule?
Answer: 20%

Question: What about the “serious AE: dehydration” value ([3]; all 50 patients, three patients) of the same molecule?
Answer: 6%

Question: And the “TEAE of grade 4 hyperglycaemia” value ([3]; all 50 patients, two patients)?
Answer: 4%

Question: What about the “grade 4 serious TEAE: sepsis” value ([3]; all 50 patients, two patients) of the same molecule?
Answer: 4%

Question: And the “patients with infusion-related increases in plasma glucose and plasma insulin” value ([3]; all patients)?
Answer: ~80%

Question: What about the “signs of increased nephrotoxicity caused by intrarenal accumulation of cisplatin” value ([3]; patients treated with copanlisib plus cisplatin, data not shown) of the same molecule?
Answer: no signs of increased nephrotoxicity

Question: And the “RP2D of copanlisib in combination with CisGem” value ([4]; cisplatin 25 mg m^−2 + gemcitabine 1000 mg m^−2, days 1 and 8 of a 21-day cycle)?
Answer: 0.8 mg/kg

Question: What about the “RP2D of copanlisib in combination with gemcitabine” value ([4]; gemcitabine 1000 mg m^−2, days 1, 8 and 15 of a 28-day cycle) of the same molecule?
Answer: 0.8 mg/kg

Question: And the “dose dependence of plasma exposure (Cmax and AUC)” value ([1]; dose range 0.6–0.8 mg kg^−1)?
Answer: nearly dose-proportional increase

Question: What about the half-life ([1]; human, plasma, intravenous) of the same molecule?
Answer: 25 to 26 h

Question: What about the “effect of co-administration of CisGem on plasma exposure (Cmax and AUC(0–25))” value ([1]; in vivo) of the same molecule?
Answer: No substantial differences; also recorded: no influence

Question: What about the “amount excreted into urine, % of dose” value [2] of the same molecule?
Answer: about 4.9%

Question: And the “response rate in patients with BTC who had not received prior anti-cancer therapy” value ([5]; 4 out of 11 patients)?
Answer: 36%

Question: What about the “response in patients with BTC who had received prior CisGem or gemcitabine-containing chemotherapy” value ([5]; 12 patients) of the same molecule?
Answer: No response

Question: What about the “objective response rate overall” value ([5]; all 50 patients, all cohorts) of the same molecule?
Answer: 10%

Question: And the “stable disease, patients” value ([5]; all 50 patients, 19 patients)?
Answer: 38%

Question: And the “partial response, patients” value ([5]; all 50 patients, four patients)?
Answer: 8%

Question: What about the “complete response, patients” value ([5]; all 50 patients, one patient) of the same molecule?
Answer: 2%

Question: What about the “inhibition of MATE2-K” value [6] of the same molecule?
Answer: strong inhibitor

Question: What about the “anti-tumour activity in PIK3CA-mutated cells” value (PIK3CA-mutated cells) of the same molecule?
Answer: anti-tumour activity

Question: And the PI3K isoform selectivity [7]?
Answer: predominant activity against PI3K-δ and PI3K-α isoforms

Question: For `O=c1ccn([C@@H]2O[C@H](CO)[C@@H](O)C2(F)F)c(=O)[nH]1` [dFdU, 2’,2’-difluorodeoxyuridine], which “influence of co-administration with copanlisib on PK” value ([1]; in vivo) is on record?
Answer: not influenced

Question: Which “influence of co-administration with copanlisib on PK” value ([1]; in vivo) does the source give for `Nc1ccn([C@@H]2O[C@H](CO)[C@@H](O)C2(F)F)c(=O)n1` [gemcitabine, reference compound] here?
Answer: not influenced

Question: For `CC[C@H](Nc1ncnc2[nH]cnc12)c1nc2cccc(F)c2c(=O)n1-c1ccccc1` [idelalisib], which “rate of AEs in combination with other anti-cancer therapies” value [8] is on record?
Answer: increased rate of AEs, including deaths
